≈ marks a conversion by molar mass, not a printed value. Where two headings read alike, the source gives them in different places. Marks after values point to notes of the source that are not given here.
Legend:
[1] = tested on: IL-6 secretion in LPS/3T3-L1 adipocytes; assay: IL-6 secretion in the lipopolysaccharide/3T3-L1 adipocyte model (Example 26); type: cell-based, murine; conditions: 100 ng LPS/ml
[2] = tested on: adiponectin secretion in LPS/3T3-L1 adipocytes; assay: Adiponectin secretion in the lipopolysaccharide/3T3-L1 adipocyte model (Example 26); conditions: 100 ng LPS/ml; for % Stimulation (maximum, adiponectin secretion): NS = not significantly different from the LPS control
PGE2 synthesis = assay: cells; type: cell-based, murine; conditions: for IC50: Mus musculus
3T3-L1 adipocytes = assay: Lipogenesis in 3T3-L1 adipocytes, Oil Red O or BODIPY staining; type: cell-based, murine
[3] = tested on: IL-6 secretion from insulin-resistant 3T3-L1 adipocytes; assay: IL-6 secretion from insulin-resistant 3T3-L1 adipocytes; type: cell-based, murine; conditions: Mus musculus
[4] = tested on: adiponectin secretion from insulin-resistant 3T3-L1 adipocytes
[5] = tested on: adiponectin secretion from insulin-resistant 3T3-L1 adipocytes; assay: cells; conditions: Mus musculus
[6] = tested on: interleukin-6 secretion from TNFα-treated 3T3-L1 adipocytes; assay: Interleukin-6 secretion from TNFα-treated 3T3-L1 adipocytes; type: cell-based, murine; conditions: Mus musculus, 3T3-L1, read-out: IL-6 Index
COX-2 protein expression = assay: Western blot of COX-2 protein expression in LPS-stimulated RAW 264.7 cells (Example 8); type: cell-based, murine; conditions: 20 hours stimulation with LPS; compared to DMSO solvent control
NF-κB = NF-κB DNA binding of nuclear extracts of LPS-stimulated RAW 264.7 cells, TransAM NF-κB kit (Example 9); type: cell-based, murine; conditions: MgRIAA 55 and 14 µg/ml, parthenolide 80 µM, LY294002 25 µM; LPS 1 µg/ml 4 h
NF-kBp65 = NF-kBp65 nuclear translocation in TNFα-treated D40 3T3-L1 adipocytes, TransAM ELISA (Example 32); type: cell-based, murine; conditions: 2.5 and 5.0 µg/ml; three or 24 hours following TNFα
Description: ELISA - 3T3-L1 adipocytes were maintained in growth media for 40 days following differentiation. Nuclear NF-kBp65 was determined using the TransAM™ NF-kB kit from Active Motif (Carlsbad, CA) was used with no modifications. […] Protein assay - Nuclear protein was quantified using the Active Motif Fluorescent Protein Quantificantion Kit. Statistical Analysis - Comparisons were performed using a one-tailed Student's t-test. The probability of a type I error was set at the nominal five percent level.

[7] = tested on: resistin secretion from insulin-resistant 3T3-L1 adipocytes; assay: cells; conditions: Mus musculus, 3T3-L1, read-out: Resistin Index
Description: Resistin Assay - The amount of resistin secreted into the medium was quantified using the Quantikine® Mouse Resistin Immunoassay kit with no modifications (R&D Systems, Minneapolis, MN). […] All supernatant media samples were diluted 1:20 with dilution media supplied by the manufacturer before assay.
Statistical Calculations and Interpretation - All assays were preformed in duplicate. […] Differences among the doses were determined using the Student's t-test without correction for multiple comparisons; the nominal five percent probability of a type I error (one-tail) was selected.

[8] = tested on: adiponectin secretion from TNFα-treated 3T3-L1 adipocytes; assay: Adiponectin secretion from TNFα-treated 3T3-L1 adipocytes; conditions: 10 ng TNFα/ml (Table 9)
[9] = RAW264.7, read-out: Relative IC50
[10] = 3T3-L1, read-out: Adiponectin Index

Question: What does the source list for `CC(=O)Oc1ccccc1C(=O)O` [Aspirin]?
Answer: Concentration (dose providing the maximum inhibition of IL-6 secretion) [1]: 25.0 µg/mL; Concentration (of maximum stimulation of adiponectin secretion) [2]: 113 µg/mL; % Stimulation (maximum, adiponectin secretion) [2]: failed to induce adiponectin secretion

Question: Which results are given for `COc1ccc2cc3[n+](cc2c1OC)CCc1cc2c(cc1-3)OCO2` [Berberine]?
Answer: IC50 (PGE2 synthesis; RAW264.7): 3.3 µg/mL; IC50 (PGE2 synthesis; [9]): 2 to 6 µg/mL

Question: `Oc1cc(O)c2c(c1)OC(c1ccc(O)c(O)c1)C(O)C2` (stereo not drawn) [Catechin] was tested. Which IC50 (PGE2 synthesis; RAW264.7) did it give?
Answer: Its IC50 is over 12 µg/mL.

Question: And the IC50 (PGE2 synthesis; [9])?
Answer: The IC50 was over 12 µg/mL.

Question: With `O=c1c(O)c(-c2ccccc2)oc2cc(O)cc(O)c12` [Galangin] as the compound, how does the “Relative Potency” value (PGE2 synthesis) read?
Answer: Its value is “high”.

Question: How did the “Relative Potency” value (PGE2 synthesis) turn out when `O=c1c(-c2ccc(O)cc2)coc2cc(O)cc(O)c12` [Genistein] was run?
Answer: The value was “high”.

Question: For `CC(C)CCC1=C(O)C(CCC(C)C)(CCC(C)C)C(=O)C(C(=O)C(C)C)=C1O` [Hexahydrocolupulone (HHCL), Hexahydrocolupulone], which “adipogenic response (lipid content relative to solvent control)” value (3T3-L1 adipocytes; hops compounds 10, 5, 4 or 2 µg/ml, spent hops 50 µg/ml, positive controls indomethacin 5.0 and troglitazone […]) is on record?
Answer: Its value is “failed to elicit a lipogenic response greater than the solvent controls”.

Question: And the activity at 6.25 µg/mL ([3]; 3T3-L1, 6.25 µg/ml, indexed to insulin only control, read-out: IL-6 Index)?
Answer: The activity at 6.25 µg/mL was 100%.

Question: What about the activity at 25 µg/mL ([3]; 3T3-L1, 25.0 µg/ml, indexed to insulin only control, read-out: IL-6 Index) of the same compound?
Answer: The activity at 25 µg/mL was 119%.

Question: And the activity at 50 µg/mL ([3]; 3T3-L1, 50.0 µg/ml, indexed to insulin only control, read-out: IL-6 Index)?
Answer: Its activity at 50 µg/mL is 277%.

Question: What about the “Adiponectin Index” value ([4]; 3t3-l1 adipocytes) of the same compound?
Answer: Its value is 1.71#.

Question: What about the fold induction at 6.25 µg/mL [5, 10] of the same compound?
Answer: Its fold induction at 6.25 µg/mL is 1.05.

Question: And the fold induction at 25 µg/mL [5, 10]?
Answer: Its fold induction at 25 µg/mL is 1.62.

Question: What about the fold induction at 50 µg/mL [5, 10] of the same compound?
Answer: Its fold induction at 50 µg/mL is 1.65.

Question: And the maximal fold induction ([5]; 3T3-L1, read-out: Maximum Adiponectin Secretion)?
Answer: Its maximal fold induction is 1.83.

Question: What about the EC50 ([5]; 3T3-L1, read-out: Test Material at Half Maximal Secretion) of the same compound?
Answer: The EC50 was 3.2 µg/mL.

Question: Which “% Inhibition (maximum, IL-6 secretion)” value [1] does the source give for `CC(C)Cc1ccc(C(C)C(=O)O)cc1` (stereo not drawn) [Ibuprofen] here?
Answer: Its value is 54* %.

Question: And the “Concentration (dose providing the maximum inhibition of IL-6 secretion)” value [1]?
Answer: Its value is 0.625 µg/mL.

Question: And the “Concentration (of maximum stimulation of adiponectin secretion)” value [2]?
Answer: Its value is 0.625 µg/mL.

Question: What about the “% Stimulation (maximum, adiponectin secretion)” value (from here on “% Stimulation”) [2] of the same compound?
Answer: Its value is 22%.

Question: For `COc1ccc2c(c1)c(CC(=O)O)c(C)n2C(=O)c1ccc(Cl)cc1` [Indomethacin], which activation at 5 µg/mL (3T3-L1 adipocytes; Mus musculus, 3T3-L1, read-out: increase of nonpolar lipid incorporation relative to the solvent controls) is on record?
Answer: The activation at 5 µg/mL was 33%.

Question: And the “% Inhibition (maximum, IL-6 secretion)” value [1]?
Answer: Its value is 53* %.

Question: And the “% Stimulation” value [2]?
Answer: The value was 9%.

Question: Which IC50 (PGE2 synthesis; RAW264.7) does the source give for `O=c1c(O)c(-c2ccc(O)cc2)oc2cc(O)cc(O)c12` [Keampferol] here?
Answer: The IC50 was 4.3 µg/mL (≈ 15 µM).

Question: What about the IC50 (PGE2 synthesis; [9]) of the same compound?
Answer: Its IC50 is 2 to 6 µg/mL (≈ 6.99 to 21 µM).

Question: Which results are given for `CN(C)C(=N)N=C(N)N` [Metformin]?
Answer: activity at 50 µg/mL (3T3-L1 adipocytes; Mus musculus, 3T3-L1, read-out: lipogenic index (observed)): 79%; activity at 1 µg/mL [6]: 91%; activity at 5 µg/mL [6]: 96%; activity at 10 µg/mL [6]: 78%; activity at 50 µg/mL [6]: 78%

Question: What does the source list for `O=c1c(O)c(-c2cc(O)c(O)c(O)c2)oc2cc(O)cc(O)c12` [Myricetin]?
Answer: IC50 (PGE2 synthesis; RAW264.7): > 12 µg/mL; IC50 (PGE2 synthesis; [9]): > 12 µg/mL

Question: Which results are given for `C=C1C(=O)O[C@@H]2[C@H]3O[C@]3(C)CC/C=C(\C)CC[C@@H]12` [Parthenolide]?
Answer: reduction in COX-2 protein expression (COX-2 protein expression): 22.5%; NF-κB DNA binding (NF-κB): significant reduction

Question: Which results are given for `CCc1ccc(CCOc2ccc(CC3SC(=O)NC3=O)cc2)nc1` (stereo not drawn) [Pioglitazone]?
Answer: % Inhibition (maximum, IL-6 secretion) [1]: 63* %; amount of nuclear NF-kBp65 (NF-kBp65): did not inhibit; % Stimulation (maximum, adiponectin secretion) [2]: 12%

Question: `O=c1c(O)c(-c2ccc(O)c(O)c2)oc2cc(O)cc(O)c12` [Quercetin] was tested. Which “Relative Potency” value (PGE2 synthesis) did it give?
Answer: Its value is “high”.

Question: How did the IC50 (PGE2 synthesis; RAW264.7) turn out when `Oc1ccc(C=Cc2cc(O)cc(O)c2)cc1` [Resveratrol] was run?
Answer: The IC50 was 5.8 µg/mL (≈ 25.4 µM).

Question: And the IC50 (PGE2 synthesis; [9])?
Answer: The IC50 was 2 to 6 µg/mL (≈ 8.76 to 26.3 µM).

Question: Which results are given for `C[C@@H]1O[C@@H](OC[C@H]2O[C@@H](Oc3c(-c4ccc(O)c(O)c4)oc4cc(O)cc(O)c4c3=O)[C@H](O)[C@@H](O)[C@@H]2O)[C@H](O)[C@H](O)[C@H]1O` [Rutin]?
Answer: IC50 (PGE2 synthesis; RAW264.7): > 12 µg/mL; IC50 (PGE2 synthesis; [9]): > 12 µg/mL

Question: For `O=C(O)c1ccccc1O` [Salicylic acid], which “Concentration (dose providing the maximum inhibition of IL-6 secretion)” value [1] is on record?
Answer: The value was 50.0 µg/mL.

Question: And the “IL-6 Index (maximum inhibition)” value ([1]; [IL-6Test - IL-6Control]/[IL-6LPS - IL-6Control])?
Answer: The value was 0.52*.

Question: What about the “Concentration (of maximum stimulation of adiponectin secretion)” value [2] of the same compound?
Answer: Its value is 173 µg/mL.

Question: What about the “% Stimulation” value [2] of the same compound?
Answer: Its value is “failed to induce adiponectin secretion”.

Question: How did the IC50 (PGE2 synthesis; RAW264.7) turn out when `c1cc2c(cc1[C@H]1OC[C@H]3[C@@H]1CO[C@@H]3c1ccc3c(c1)OCO3)OCO2` [Sesamin] was run?
Answer: The IC50 was over 12 µg/mL.

Question: And the IC50 (PGE2 synthesis; [9])?
Answer: The IC50 was over 12 µg/mL.

Question: Which activity at 1 µg/mL [6] does the source give for `Cc1c(C)c2c(c(C)c1O)CCC(C)(COc1ccc(CC3SC(=O)NC3=O)cc1)O2` (stereo not drawn) [Troglitazone] here?
Answer: The activity at 1 µg/mL was 66%.

Question: What about the activity at 0.625 µg/mL ([3]; 3T3-L1, read-out: IL-6 Index) of the same compound?
Answer: Its activity at 0.625 µg/mL is 100%.

Question: And the activity at 5 µg/mL ([3]; 3T3-L1, read-out: IL-6 Index)?
Answer: The activity at 5 µg/mL was 131%.

Question: And the “% Inhibition (maximum, IL-6 secretion)” value [1]?
Answer: Its value is 69* %.

Question: What about the “Concentration (dose providing the maximum inhibition of IL-6 secretion)” value [1] of the same compound?
Answer: Its value is 10.0 µg/mL.

Question: And the “concentration at which maximal adiponectin secretion was observed” value ([4]; of the four doses tested)?
Answer: Its value is 2.5 µg/mL.

Question: And the EC50 ([5]; 3T3-L1, read-out: Test Material at Half Maximal Secretion, estimated from the slope of Hofstee plots)?
Answer: Its EC50 is 0.085 µg/mL (≈ 0.193 µM).

Question: What about the activity at 0.625 µg/mL [7] of the same compound?
Answer: Its activity at 0.625 µg/mL is 89%.

Question: What about the activity at 5 µg/mL [7] of the same compound?
Answer: The activity at 5 µg/mL was 143%.

Question: And the “Concentration (of maximum adiponectin secretion)” value [8]?
Answer: Its value is 0.625 µg/mL.

Question: And the “Concentration (of maximum stimulation of adiponectin secretion)” value [2]?
Answer: The value was 0.625 µg/mL.

Question: And the “% Stimulation” value [2]?
Answer: Its value is 15%.

Reference: EP2737897A2, “Anti-inflammatory botanical products for the treatment of metabolic syndrome and diabetes” (Metaproteomics, LLC, priority 2005, dated 2007)
